Our source for the IC50 values is patent EP4755888A1 (ILAb Co., Ltd., priority 2023, dated 2025).

The experiment has as its target PD-1/PD-L1 (Homo sapiens, UniProt Q9NZQ7). The experiment is described as follows: TR-FRET PD-1/PD-L1 binding inhibition at the molecular level (free proteins). Particulars: Tag1-PD-L1 and Tag2-PD-1 proteins, twelve concentrations from 200 nM, 2 hours at room temperature, read-out: FRET assay (IC50). The method, boiled down: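 HTRF read-out at 665/620 nm after 2 h at room temperature. Detection used anti-Tag1 Eu cryptate plus anti-Tag2 XL665 antibodies. Tagged PD-L1 and PD-1 proteins were pre-mixed with compound across twelve […] 1:2 dilutions starting at 200 nM.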
(In TR-FRET formats the signal depends on donor and acceptor labels being close together.)

PD-1/PD-L1, sequence (Q9NZQ7 19-238 limits assumed): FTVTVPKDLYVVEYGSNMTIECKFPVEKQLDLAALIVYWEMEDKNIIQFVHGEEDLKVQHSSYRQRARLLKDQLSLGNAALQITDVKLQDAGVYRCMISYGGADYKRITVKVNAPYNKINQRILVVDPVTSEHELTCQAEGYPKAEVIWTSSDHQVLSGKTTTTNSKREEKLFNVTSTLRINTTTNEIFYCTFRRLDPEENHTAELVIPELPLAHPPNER

For `COc1cc(C(=O)Nc2cccc(-c3cccc(NC(=O)c4cc5n(n4)CCCC5N4CC[C@@H](C(=O)O)C4)c3Cl)c2Cl)cc(F)c1CNCCO` (stereo partly drawn) [Compound 194, (3R)-1-(2-((2,2'-dichloro-3'-(3-fluoro-4-(((2-hydroxyethyl)amino)methyl)-5-methoxybenzamido)-[1,1'-biphenyl]-3-yl)carbamoyl)-4,5,6,7-tetrahydropyrazolo[1,5-a]pyridin-4-yl)pyrrolidine-3-carboxylic acid], the IC50 was < 10 nM. With `COc1cc(C(=O)Nc2cccc(-c3cccc(NC(=O)c4cc5n(n4)CCCC5N4CC[C@@H](C(=O)O)C4)c3Cl)c2Cl)cc(F)c1CNCC(=O)O` (stereo partly drawn) [Compound 195, (3R)-1-(2-((3'-(4-(((carboxymethyl)amino)methyl)-3-fluoro-5-methoxybenzamido)-2,2'-dichloro-[1,1'-biphenyl]-3-yl)carbamoyl)-4,5,6,7-tetrahydropyrazolo[1,5-a]pyridin-4-yl)pyrrolidine-3-carboxylic acid] the figure was < 10 nM; with `COc1cc(C(=O)Nc2cccc(-c3cccc(NC(=O)c4cc5n(n4)CCCC5N4CC[C@@H](C(=O)O)C4)c3Cl)c2Cl)cc(F)c1CN1CC[C@@H](O)C1` (stereo partly drawn) [Compound 196, (3R)-1-(2-((2,2'-dichloro-3'-(3-fluoro-4-(((R)-3-hydroxypyrrolidin-1-yl)methyl)-5-methoxybenzamido)-[1,1'-biphenyl]-3-yl)carbamoyl)-4,5,6,7-tetrahydropyrazolo[1,5-a]pyridin-4-yl)pyrrolidine-3-carboxylic acid], < 10 nM. Turning to `COc1cc(C(=O)Nc2cccc(-c3cccc(NC(=O)c4cc5n(n4)CCCC5N4CC[C@@H](C(=O)O)C4)c3Cl)c2Cl)cc(F)c1CN1CC[C@@H](C(=O)O)C1` (stereo partly drawn) [Compound 197, (3R)-1-(4-((3'-(4-((R)-3-carboxypyrrolidin-1-yl)-4,5,6,7-tetrahydropyrazolo[1,5-a]pyridine-2-carboxamido)-2,2'-dichloro-[1,1'-biphenyl]-3-yl)carbamoyl)-2-fluoro-6-methoxybenzyl)pyrrolidine-3-carboxylic acid], the IC50 was in the range of 10 to 100 nM. For the compound `O=C(O)CNC1CCCn2nc(C(=O)Nc3cccc(-c4cccc(NC(=O)c5ccc(CNCCO)c(F)n5)c4Cl)c3Cl)cc21` (centres unmarked) [Compound 198, 2-((2-((2,2'-dichloro-3'-(6-fluoro-5-(((2-hydroxyethyl)amino)methyl)picolinamido)-[1,1'-biphenyl]-3-yl)carbamoyl)-4,5,6,7-tetrahydropyrazolo[1,5-a]pyridin-4-yl)amino)acetic acid], the IC50 was < 10 nM. `O=C(Nc1cccc(-c2cccc(NC(=O)c3cc4n(n3)CCCC4N3CC[C@@H](C(=O)O)C3)c2Cl)c1Cl)c1ccc(CNCCO)c(F)n1` (stereo partly drawn) [Compound 199, (3R)-1-(2-((2,2'-dichloro-3'-(6-fluoro-5-(((2-hydroxyethyl)amino)methyl)picolinamido)-[1,1'-biphenyl]-3-yl)carbamoyl)-4,5,6,7-tetrahydropyrazolo[1,5-a]pyridin-4-yl)pyrrolidine-3-carboxylic acid]: the IC50 was < 10 nM. `O=C(O)CNC1CCCn2nc(C(=O)Nc3cccc(-c4cccc(NC(=O)c5ncc(CNCCO)cc5F)c4Cl)c3Cl)cc21` (centres unmarked) [Compound 200, 2-((2-((2,2'-dichloro-3'-(3-fluoro-5-(((2-hydroxyethyl)amino)methyl)picolinamido)-[1,1'-biphenyl]-3-yl)carbamoyl)-4,5,6,7-tetrahydropyrazolo[1,5-a]pyridin-4-yl)amino)acetic acid]: the IC50 was < 10 nM. In the case of `O=C(Nc1cccc(-c2cccc(NC(=O)c3ncc(CNCCO)cc3F)c2Cl)c1Cl)c1cc2n(n1)CCCC2N1CC[C@@H](C(=O)O)C1` (stereo partly drawn) [Compound 201, (3R)-1-(2-((2,2'-dichloro-3'-(3-fluoro-5-(((2-hydroxyethyl)amino)methyl)picolinamido)-[1,1'-biphenyl]-3-yl)carbamoyl)-4,5,6,7-tetrahydropyrazolo[1,5-a]pyridin-4-yl)pyrrolidine-3-carboxylic acid], the IC50 is < 10 nM. With `O=C(O)CNC1CCCn2nc(C(=O)Nc3cccc(-c4cccc(NC(=O)c5ccc(CN6CC[C@@H](O)C6)c(F)n5)c4Cl)c3Cl)cc21` (stereo partly drawn) [Compound 202, 2-((2-((2,2'-dichloro-3'-(6-fluoro-5-(((R)-3-hydroxypyrrolidin-1-yl)methyl)picolinamido)-[1,1'-biphenyl]-3-yl)carbamoyl)-4,5,6,7-tetrahydropyrazolo[1,5-a]pyridin-4-yl)amino)acetic acid] the figure was < 10 nM; with `O=C(Nc1cccc(-c2cccc(NC(=O)c3cc4n(n3)CCCC4N3CC[C@@H](C(=O)O)C3)c2Cl)c1Cl)c1ccc(CN2CC[C@@H](O)C2)c(F)n1` (stereo partly drawn) [Compound 203, (3R)-1-(2-((2,2'-dichloro-3'-(6-fluoro-5-(((R)-3-hydroxypyrrolidin-1-yl)methyl)picolinamido)-[1,1'-biphenyl]-3-yl)carbamoyl)-4,5,6,7-tetrahydropyrazolo[1,5-a]pyridin-4-yl)pyrrolidine-3-carboxylic acid], < 10 nM; with `O=C(O)CNC1CCCn2nc(C(=O)Nc3cccc(-c4cccc(NC(=O)c5ncc(CN6CC[C@@H](O)C6)cc5F)c4Cl)c3Cl)cc21` (stereo partly drawn) [Compound 204, 2-((2-((2,2'-dichloro-3'-(3-fluoro-5-(((R)-3-hydroxypyrrolidin-1-yl)methyl)picolinamido)-[1,1'-biphenyl]-3-yl)carbamoyl)-4,5,6,7-tetrahydropyrazolo[1,5-a]pyridin-4-yl)amino)acetic acid], < 10 nM.

For `O=C(Nc1cccc(-c2cccc(NC(=O)c3ncc(CN4CC[C@@H](O)C4)cc3F)c2Cl)c1Cl)c1cc2n(n1)CCCC2N1CC[C@@H](C(=O)O)C1` (stereo partly drawn) [Compound 205, (3R)-1-(2-((2,2'-dichloro-3'-(3-fluoro-5-(((R)-3-hydroxypyrrolidin-1-yl)methyl)picolinamido)-[1,1'-biphenyl]-3-yl)carbamoyl)-4,5,6,7-tetrahydropyrazolo[1,5-a]pyridin-4-yl)pyrrolidine-3-carboxylic acid], the IC50 was < 10 nM.

Regarding `O=C(Nc1cccc(-c2cccc(Nc3nccc4cc(CN5CC[C@@H](O)C5)cnc34)c2Cl)c1Cl)c1cc2n(n1)CCCC2N1CC[C@@H](C(=O)O)C1` (stereo partly drawn) [Compound 228, (3R)-1-(2-((2,2'-dichloro-3'-((3-(((R)-3-hydroxypyrrolidin-1-yl)methyl)-1,7-naphthyridin-8-yl)amino)-[1,1'-biphenyl]-3-yl)carbamoyl)-4,5,6,7-tetrahydropyrazolo[1,5-a]pyridin-4-yl)pyrrolidine-3-carboxylic acid], the IC50 lay in the range of 10 to 100 nM. With `O=C(Nc1cccc(-c2cccc(Nc3nccc4cc(CN5CC[C@@H](O)C5)cnc34)c2Cl)c1Cl)c1cc2n(n1)CCCC2NC(CO)CO` (stereo partly drawn) [Compound 230, N-(2,2'-dichloro-3'-((3-(((R)-3-hydroxypyrrolidin-1-yl)methyl)-1,7-naphthyridin-8-yl)amino)-[1,1'-biphenyl]-3-yl)-4-((1,3-dihydroxypropan-2-yl)amino)-4,5,6,7-tetrahydropyrazolo[1,5-a]pyridine-2-carboxamide] the figure was 10 to 100 nM; with `O=C(Nc1cccc(-c2cccc(Nc3nccc4cc(CN5CC[C@@H](O)C5)cnc34)c2Cl)c1Cl)c1cc2n(n1)CCCC2NC1CCOCC1` (stereo partly drawn) [Compound 231, N-(2,2'-dichloro-3'-((3-(((R)-3-hydroxypyrrolidin-1-yl)methyl)-1,7-naphthyridin-8-yl)amino)-[1,1'-biphenyl]-3-yl)-4-((tetrahydro-2H-pyran-4-yl)amino)-4,5,6,7-tetrahydropyrazolo[1,5-a]pyridine-2-carboxamide], 10 to 100 nM. Regarding `O=C(Nc1cccc(-c2cccc(Nc3nccc4cc(CN5CC[C@@H](O)C5)cnc34)c2Cl)c1Cl)c1cc2n(n1)CCCC2N1CC(O)C1` (stereo partly drawn) [Compound 232, N-(2,2'-dichloro-3'-((3-(((R)-3-hydroxypyrrolidin-1-yl)methyl)-1,7-naphthyridin-8-yl)amino)-[1,1'-biphenyl]-3-yl)-4-(3-hydroxyazetidin-1-yl)-4,5,6,7-tetrahydropyrazolo[1,5-a]pyridine-2-carboxamide], the half-maximal inhibitory concentration (IC50) is 10 to 100 nM.

On to `O=C(Nc1cccc(-c2cccc(Nc3nccc4cc(CN5CC[C@@H](O)C5)cnc34)c2Cl)c1Cl)c1cc2n(n1)CCCC2NC1CCC(O)CC1` (stereo partly drawn) [Compound 233, N-(2,2'-dichloro-3'-((3-(((R)-3-hydroxypyrrolidin-1-yl)methyl)-1,7-naphthyridin-8-yl)amino)-[1,1'-biphenyl]-3-yl)-4-((4-hydroxycyclohexyl)amino)-4,5,6,7-tetrahydropyrazolo[1,5-a]pyridine-2-carboxamideide], for which the half-inhibitory concentration (IC50) lay in the range of 10 to 100 nM. As for `COCCNC1CCCn2nc(C(=O)Nc3cccc(-c4cccc(Nc5nccc6cc(CN7CC[C@@H](O)C7)cnc56)c4Cl)c3Cl)cc21` (stereo partly drawn) [Compound 234, N-(2,2'-dichloro-3'-((3-(((R)-3-hydroxypyrrolidin-1-yl)methyl)-1,7-naphthyridin-8-yl)amino)-[1,1'-biphenyl]-3-yl)-4-((2-methoxyethyl)amino)-4,5,6,7-tetrahydropyrazolo[1,5-a]pyridine-2-carboxamide], the half-inhibitory concentration (IC50) was 10 to 100 nM. Regarding `CS(=O)(=O)NCCNC1CCCn2nc(C(=O)Nc3cccc(-c4cccc(Nc5nccc6cc(CN7CC[C@@H](O)C7)cnc56)c4Cl)c3Cl)cc21` (stereo partly drawn) [Compound 235, N-(2,2'-dichloro-3'-((3-(((R)-3-hydroxypyrrolidin-1-yl)methyl)-1,7-naphthyridin-8-yl)amino)-[1,1'-biphenyl]-3-yl)-4-((2-(methylsulfonamido)ethyl)amino)-4,5,6,7-tetrahydropyrazolo[1,5-a]pyridine-2-carboxamide], the IC50 is 10 to 100 nM. As for `CC(=O)N1CC2(C1)CN(C1CCCn3nc(C(=O)Nc4cccc(-c5cccc(Nc6nccc7cc(CN8CC[C@@H](O)C8)cnc67)c5Cl)c4Cl)cc31)C2` (stereo partly drawn) [Compound 236, 4-(6-acetyl-2,6-diazaspiro[3.3]heptan-2-yl)-N-(2,2'-dichloro-3'-((3-(((R)-3-hydroxypyrrolidin-1-yl)methyl)-1,7-naphthyridin-8-yl)amino)-[1,1'-biphenyl]-3-yl)-4,5,6,7-tetrahydropyrazolo[1,5-a]pyridine-2-carboxamide], the 50% inhibitory concentration (IC50) lay in the range of 10 to 100 nM.

As usually defined, the IC50 is the concentration that gives 50% inhibition.
